The results in this text go back to paper PMC10657444, “Design and evaluation of tadpole-like conformational antimicrobial peptides” (Communications Biology, 2023).

Converted amounts (≈) assume the structure as drawn. Residues, ends and D or L forms follow the SMILES beside them.

Data set [1] can be described thus: MTT cytotoxicity assay. In kind it is cell-based, human. Conditions: human; for viability at 72 h, 0.39 µM / viability at 72 h, 0.78 µM / viability at 72 h, 1.57 µM / viability at 72 h, 3.13 µM / viability at 72 h, 6.25 µM / viability at 72 h, 12.5 µM / viability at 72 h, 25 µM: HEK293T cells, OD450, cytotoxicity (Fig 2a), replicates. As for the experimental part:
(§1) To determine the cytotoxicity of the peptides, we used the MTT (3-(4,5)-dimethylthiahiazo (-z-y1)-3,5-di-phenytetrazoliumromide) dye reduction assay against HEK293T cells. In brief, the 100 μL of cells in 96-well plate were incubated for 24 h at 37 °C, 5% CO2, and then peptide solutions (concentrations ranging from 100 to 0.39 μM) were added and further incubated for 72 h. MTT solution (5 mg/mL) was added and further incubated for 4 h. After incubation, the precipitated MTT formazan crystal was dissolved by addition of dimethyl sulfoxide (DMSO). […]

Data set [2] relates to HEK293T cells. Kind of data set: MTT cytotoxicity assay. Format: cell-based, human. As to the method:
as §1

The subject of data set [3] is all tested bacterial strains. Conditions: range over all strains.
Source text: The bacterial strains used in this study included the Gram-positive bacteria methicillin resistant Staphylococcus aureus (MRSA) (MRSA ATCC 43300 and 2 clinically isolated strains presented as MRSA USA 300 and MRSA 3393), Gram-negative bacteria Escherichia coli (E. coli ATCC 25922, and 1 clinically isolated strain presented as E. coli S), Klebsiella pneumoniae (K. pneumoniae ATCC 700603, and 1 clinically isolated strain presented as K. pneumoniae 3026), and Acinetobacter baumannii (2 clinically isolated strains presented as A. baumannii 1318 and A. baumannii 1337). Bacteria were cultivated in Luria-Bertani (LB) broth.
The Clinical and Laboratory Standards Institute (CLSI)-defined broth microdilution testing method (M07, 11th edition, 2018) was used to determine MICs for peptides. Briefly, the concentrations of the peptides and ciprofloxacin in the assay wells ranged from 100 μM to 0.01 μM as a 11-point dose response plated as a 2-fold dilution series across the wells of the plate in duplicate for each independent biological replicate. Bacterial susceptibility assays were performed in Cation-Adjusted Mueller Hinton Broth (CAMHB), and using a final cell density of 5 × 10^6 CFU/mL for bacteria[36]. Final assay volumes were 100 μL per well with MICs determined by measuring absorbance at 595 nm with a microplate reader following 18–20 h incubation at 37 °C. […]
In data set [4] the test system is MRSA 3393. Format: cell-based, Staphylococcus aureus. The following applies: 3393. From the text:
(§2) Bacteria were cultivated in Luria-Bertani (LB) broth.

Data set [5] relates to MRSA ATCC 43300. Format: cell-based, Staphylococcus aureus. The following applies: ATCC 43300.
Source text: as §2

Data set [6] has as its system MRSA USA 300. Format: cell-based, Staphylococcus aureus.
Source text: as §2

For data set [7], the system named is sheep red blood cells. Nature of the data set: Hemolysis assay. The following applies: red cells of sheep, 1 h. As for the experimental part:
To evaluate the hemolysis effects of peptides, red blood hemolysis was performed as described with minimum modifications. Sterile defibrated sheep blood was purchased from Guangzhou Hongquan Biotechnology Co., LTD. Blood cells were adjusted to 2 × 10^9 cells/mL in phosphate-buffered saline (PBS, pH 7.4). In total, 98 μL sheep red blood cell suspension was incubated with 2 μL of peptides at different concentrations ranging from 3.13 to 100 µM. After incubation for 1 h at 37 °C, the cells were centrifuged and the absorbance of the supernatant was measured at 450 nm. The value for “zero hemolysis” was determined using sterile PBS, while 100% hemolysis was established using 1.5% (v/v) Triton X-100. Hemolysis of testing sample was calculated as the percentage of Triton X-100-induced hemolysis.

For data set [8], the system named is E. coli ATCC 25922. Format: cell-based, Escherichia coli.
Source text: as §2

Data set [9] has as its system E. coli S. In kind it is cell-based, Escherichia coli.
Source text: as §2

In data set [10] the test system is K. pneumoniae 3026. Format: cell-based, Klebsiella pneumoniae.
Source text: as §2

In data set [11] the test system is K. pneumoniae ATCC 700603. In kind it is cell-based, Klebsiella pneumoniae.
Source text: as §2

For data set [12], the system named is A. baumannii 1318. Format: cell-based, Acinetobacter baumannii.
Source text: as §2

The test system of data set [13] is A. baumannii 1337. In kind it is cell-based, Acinetobacter baumannii.
Source text: as §2

In the case of `CC[C@H](C)[C@H](NC(=O)[C@H](CCCNC(=N)N)NC(=O)[C@H](CCCNC(=N)N)NC(=O)[C@H](CC(C)C)NC(=O)[C@H](Cc1ccccc1)NC(=O)[C@@H](N)CCCNC(=N)N)C(=O)N[C@@H](Cc1ccccc1)C(=O)N[C@@H](CCCNC(=N)N)C(=O)N[C@@H](Cc1ccccc1)C(=O)N[C@@H](Cc1ccccc1)C(=O)N[C@@H](Cc1ccccc1)C(N)=O` [HT4] (H-RFLRRIFRFFF-NH2), in data set [1], 2.6 µM corresponded to half-maximal inhibition (IC50 at 72 h); the viability (as a rule, a per cent measure of how many cells are alive, often set against a control) at 72 h, 0.39 µM came out at 85.8%; the viability at 72 h, 0.78 µM worked out at 80%; the viability at 72 h, 1.57 µM is 70.9%. Also, in data set [1], the viability at 72 h, 3.13 µM is 34.7%; the viability at 72 h, 6.25 µM was found to be 22.3%; the viability at 72 h, 12.5 µM came to 13.4%; the viability at 72 h, 25 µM worked out at 5.83%. Further, the “toxicity / cytotoxicity against HEK293T cells (in words)” value in data set [2] was “high toxicity”. Further, the “MICs against all tested bacterial strains” value in data set [3] was in the range of 3.13 to 12.5 µM. For the same compound, the “MIC Gram+ MRSA 3393” value in [4] amounted to 3.13 µM (≈ 5.02 µg/mL). Besides, the “MIC Gram+ MRSA ATCC 43300” value in data set [5] was determined as 3.13 µM (≈ 5.02 µg/mL). In addition, in data set [6], the “MIC Gram+ MRSA USA 300” value was 3.13 µM (≈ 5.02 µg/mL). Besides, the “HC10 (concentration inducing 10% hemolysis)” value in data set [7] was 12.5 µM. Also, the “MIC Gram- E. coli ATCC 25922” value in [8] came out at 6.25 µM (≈ 10 µg/mL). The “MIC Gram- E. coli S” value in data set [9] came to 12.5 µM (≈ 20 µg/mL). Besides, the “MIC Gram- K. p 3026” value in data set [10] came out at 12.5 µM (≈ 20 µg/mL). Moreover, the “MIC Gram- K. p ATCC 700603” value in data set [11] is 3.13 µM (≈ 5.02 µg/mL). Also, the “MIC Gram- A. b 1318” value in data set [12] was found to be 3.13 µM (≈ 5.02 µg/mL). Also, in data set [13], the “MIC Gram- A. b 1337” value is 3.13 µM (≈ 5.02 µg/mL).

In the case of `CC[C@H](C)[C@H](NC(=O)[C@H](CCCNC(=N)N)NC(=O)[C@H](CCCNC(=N)N)NC(=O)[C@H](CC(C)C)NC(=O)[C@H](Cc1ccccc1)NC(=O)[C@@H](N)CCCNC(=N)N)C(=O)N[C@@H](Cc1ccccc1)C(=O)N[C@@H](CCCCN)C(=O)N[C@@H](Cc1ccccc1)C(=O)N[C@@H](Cc1ccccc1)C(=O)N[C@@H](Cc1ccccc1)C(N)=O` [HT5] (H-RFLRRIFKFFF-NH2), in data set [1], the concentration for half-maximal inhibition (IC50) (as a rule, the concentration that inhibits the measured activity by half) at 72 h was determined as 2.3 µM; the viability at 72 h, 0.39 µM amounted to 85.5%; the viability at 72 h, 0.78 µM was determined as 79.4%; the viability at 72 h, 1.57 µM was determined as 62.7%. In [1], this compound yielded a viability at 72 h, 3.13 µM of 21%; a viability at 72 h, 6.25 µM of 22.6%; a viability at 72 h, 12.5 µM of 8.57%; a viability at 72 h, 25 µM of 10.4%. In addition, the “toxicity / cytotoxicity against HEK293T cells (in words)” value in data set [2] is on record as “high toxicity”. Also, in data set [3], the “MICs against all tested bacterial strains” value lay in the range of 3.13 to 12.5 µM. Also, in data set [4], the “MIC Gram+ MRSA 3393” value was 3.13 µM (≈ 4.93 µg/mL). Further, the “MIC Gram+ MRSA ATCC 43300” value in [5] came to 3.13 µM (≈ 4.93 µg/mL). Moreover, the “MIC Gram+ MRSA USA 300” value in [6] stood at 3.13 µM (≈ 4.93 µg/mL). Further, the “HC10 (concentration inducing 10% hemolysis)” value in data set [7] is 12.5 µM. In addition, the “MIC Gram- E. coli ATCC 25922” value in [8] was 6.25 µM (≈ 9.85 µg/mL). In data set [9], the “MIC Gram- E. coli S” value turned out to be 6.25 µM (≈ 9.85 µg/mL). The “MIC Gram- K. p 3026” value in data set [10] turned out to be 12.5 µM (≈ 19.7 µg/mL). Further, in data set [11], the “MIC Gram- K. p ATCC 700603” value was 12.5 µM (≈ 19.7 µg/mL). In data set [12], the “MIC Gram- A. b 1318” value stood at 3.13 µM (≈ 4.93 µg/mL). Moreover, the “MIC Gram- A. b 1337” value in data set [13] was found to be 3.13 µM (≈ 4.93 µg/mL).
